These results are taken from ChEMBL document CHEMBL5380820, “Design and Discovery of Novel Cyclic Peptides as EDPs-EBP Interaction Inhibitors for the Treatment of Liver Fibrosis” (J Med Chem, 2023).

In series [1] the test system is LX-2. In words: Antifibrotic activity against TGF-beta induced human LX2 cells assessed as reduction of collagen I expression measured at 10 uM for 24 hrs by measuring fluorescence intensity relative to control. Format: functional. Details: scale not given: the % may be the effect or the level left.
The nature of series [2]: Stability in mouse serum assessed as half life measured by RP-HPLC-MS analysis. Format: ADME, cell-free.
For series [3], the system named is LX-2. In words: Antifibrotic activity against TGF-beta induced human LX2 cells assessed as inhibition of collagen I expression by measuring fluorescence intensity relative to control. The format is functional.
The subject of series [4] is Mus musculus. Nature of the series: Antifibrotic activity in CCl4-induced C57BL/6 mouse model of liver fibrosis assessed as decrease of hydroxyproline content in liver treated at 150 ug/kg ip daily for 3 weeks fasted for 9 hrs after last dose and sacrificed after 8 hrs of fasting by […] analysis. Format: functional, organism-based. To be noted: dose 150.0 µg/kg, time 3.033 weeks.

Series [5] concerns Mus musculus. In words: Antifibrotic activity in CCl4-induced C57BL/6 mouse model of liver fibrosis assessed as reduction of collagen deposition in liver treated at 150 ug/kg, ip daily for 3 weeks fasted for 9 hrs after last dose and sacrificed after 8 hrs of fasting by hematoxylin and eosin staining analysis. Format: functional, organism-based. Particulars: dose 150.0 µg/kg, time 3.033 weeks.

The test system of series [6] is LX-2. In words: Antifibrotic activity against TGF-beta induced human LX2 cells assessed as reduction of alpha-SMA expression measured at 10 uM for 24 hrs by measuring fluorescence intensity relative to control. Details: scale not given: the % may be the effect or the level left. Format: functional.
For series [7], the system named is LX2. Nature of the series: Inhibition of elastin receptor complex elastin binding protein subunit in human LX2 cells assessed as inhibition of EDP induced ERK phosphorylation treated at 10 uM for 24 hrs by Western blot analysis. Format: cell-based. (In general: A western blot detects proteins with antibodies after separation by electrophoresis.)
The nature of series [8]: Tmax in Sprague-Dawley rat plasma at 0.1 mg/kg, sc by HPLC-MS/MS analysis. Format: ADME, organism-based.
Series [9] deals with LX-2. In words: Antifibrotic activity against TGF-beta induced human LX2 cells assessed as inhibition of neuraminidase activity using NA fluorogenic substrate by measuring fluorescence intensity relative to control. Format: functional.
For series [10], the system named is LX-2. In words: Antiproliferative activity against TGF-beta induced human LX2 cells assessed as decrease in cell proliferation at 10 uM for 24 hrs by BeyoClick EdU cells proliferation kit with Alex Fluor 488 and DAPI staining analysis. The format is functional, cell-based.
For series [11], the system named is LX2. In words: Inhibition of elastin receptor complex elastin binding protein subunit in human LX2 cells assessed as inhibition of EDP induced AMPK phosphorylation treated at 10 uM for 24 hrs by Western blot analysis. Format: cell-based.
For series [12], the system named is LX-2. Nature of the series: Inhibition of cell migration in human LX2 cells assessed as decreased cell number in wound area measured at 0 to 24 hrs by wound healing assay. The format is functional, cell-based. To be noted: time 0-24 hrs.
The subject of series [13] is Mus musculus. Nature of the series: Antifibrotic activity in CCl4-induced C57BL/6 mouse model of liver fibrosis assessed as reduction in alpha-SMA level treated at 150 ug/kg, ip daily for 3 weeks by Western blo analysis. Particulars: dose 150.0 µg/kg. The format is functional, organism-based.
Series [14] concerns LX2. In words: Inhibition of elastin receptor complex elastin binding protein subunit in human LX2 cells assessed as inhibition of EDP induced PI3K phosphorylation treated at 10 uM for 24 hrs by Western blot analysis. Format: cell-based.
Series [15] in a line: Half life in Sprague-Dawley rat plasma at 0.1 mg/kg, sc by HPLC-MS/MS analysis. The format is ADME, organism-based.
Series [16] relates to LX-2. In words: Antifibrotic activity against TGF-beta induced human LX2 cells assessed as inhibition of alpha-SMA expression by measuring fluorescence intensity relative to control. The format is functional.

Structures are written as SMILES. Active and inactive are the calls of the source. The rule behind the calls is not given here. Where a SMILES comes first, the peptide text is derived from it.

`CC(C)C[C@@H]1NC(=O)[C@@H]2CCCN2C(=O)[C@H](CO)NC(=O)[C@H](C)NC(=O)[C@H](CCC(=O)O)NC(=O)[C@H](CC(=O)O)NC(=O)[C@H](CCC(N)=O)NC(=O)[C@H](C)NC(=O)[C@H](CO)NC(=O)[C@@H]2CCCN2C(=O)[C@H](CO)NC(=O)CNC(=O)[C@H](C(C)C)NC(=O)[C@H](C(C)C)NC1=O` (cyclo(AQDEASPLVVGSPS)): the Activity in the series with LX-2 [1] and in the series with LX-2 [6] was roughly 50% each time. The half-life – broadly, the time in which the quantity being followed falls by half – in series [2] was greater than 36 h; in series [15], 19.8 min. Further, the figures for the “inhibition (INH)” value with LX-2 [3], in the series with LX-2 [9] and with LX-2 [16] were 39.7%, 79.8% and 45.3%, respectively. Also, the result in the series on Mus musculus [4], in the series on Mus musculus [5], in the series with LX-2 [10] and with Mus musculus [13] was Active. In addition, the inhibition result in the series on LX2 [7], with LX2 [11], with LX-2 [12] and in the series with LX2 [14] was “Active” each time. Further, the Tmax (commonly the time at which the peak concentration occurs) in [8] was determined as 10.2 min.
